From PubChem BioAssay AID1963976 (Molecular Pharmacology Branch, DTP, NCI, 2024)
Values belong to the compound of their own block, whether it stands above or below them.

Test system: 435261-313-R-J1-PDC tumor spheroid viability
Test: Anticancer human tumor 435261-313-R-J1-PDC patient-derived colon adenocarcinoma cell line growth inhibition [PI3K]
Conditions: spheroids with HUVEC and MSC; for IC50: curve of first compound; for viability, T/C: stronger effect = lower value
In short: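 Viability of mixed-cell spheroids was determined after exposure to pairwise combinations, one partner being inavolisib, alpelisib, duvelisib or copanlisib. Highest tested concentration matched clinical Cmax where known and 10 microM where not, descending in half-log steps.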

[1] = second compound 0.00316 µM, first compound 0.0316 µM
[2] = second compound 0.00316 µM, first compound 0.1 µM
[3] = second compound 0.00316 µM, first compound 0.316 µM
[4] = second compound 0.00316 µM, first compound 1 µM
[5] = second compound 0.00316 µM, first compound 3.16 µM
[6] = second compound 0.00316 µM, first compound 10 µM
[7] = second compound 0.01 µM, first compound 0.0316 µM
[8] = second compound 0.01 µM, first compound 0.1 µM
[9] = second compound 0.01 µM, first compound 0.316 µM
[10] = second compound 0.01 µM, first compound 1 µM
[11] = second compound 0.01 µM, first compound 3.16 µM
[12] = second compound 0.01 µM, first compound 10 µM
[13] = second compound 0.0316 µM, first compound 0.0316 µM
[14] = second compound 0.0316 µM, first compound 0.1 µM
[15] = second compound 0.0316 µM, first compound 0.316 µM
[16] = second compound 0.0316 µM, first compound 1 µM
[17] = second compound 0.0316 µM, first compound 3.16 µM
[18] = second compound 0.0316 µM, first compound 10 µM
[19] = second compound 0.1 µM, first compound 0.0316 µM
[20] = second compound 0.1 µM, first compound 0.1 µM
[21] = second compound 0.1 µM, first compound 0.316 µM
[22] = second compound 0.1 µM, first compound 1 µM
[23] = second compound 0.1 µM, first compound 3.16 µM
[24] = second compound 0.1 µM, first compound 10 µM
[25] = second compound 0.316 µM, first compound 0.0316 µM
[26] = second compound 0.316 µM, first compound 0.1 µM
[27] = second compound 0.316 µM, first compound 0.316 µM
[28] = second compound 0.316 µM, first compound 1 µM
[29] = second compound 0.316 µM, first compound 3.16 µM
[30] = second compound 0.316 µM, first compound 10 µM
[31] = second compound 1 µM, first compound 0.0316 µM
[32] = second compound 1 µM, first compound 0.1 µM
[33] = second compound 1 µM, first compound 0.316 µM
[34] = second compound 1 µM, first compound 1 µM
[35] = second compound 1 µM, first compound 3.16 µM
[36] = second compound 1 µM, first compound 10 µM
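Further: spheroids exposed to compounds for 7 days.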

IC50 (second compound 0.00316 µM): 567 nM
IC50 (second compound 0.01 µM): 447 nM
IC50 (second compound 0.0316 µM): 225 nM
IC50 (second compound 0.1 µM): 31.9 nM
IC50 (second compound 0.316 µM): < 31.6 nM
IC50 (second compound 1 µM): < 31.6 nM
Compound: Cn1ncc(Cl)c1-c1cc(C(=O)NC(CN)Cc2cccc(F)c2)sc1Cl (stereo unspecified) + CC(Nc1ccc2c(c1)OCCn1cc(N3C(=O)OCC3C(F)F)nc1-2)C(N)=O
viability, T/C [1]: 75.2%
viability, T/C [2]: 84.9%
viability, T/C [3]: 67.3%
viability, T/C [4]: 31.6%
viability, T/C [5]: 18.7%
viability, T/C [6]: 7.28%
viability, T/C [7]: 67.9%
viability, T/C [8]: 92.8%
viability, T/C [9]: 51.9%
viability, T/C [10]: 31.2%
viability, T/C [11]: 19.1%
viability, T/C [12]: 6.44%
viability, T/C [13]: 67.8%
viability, T/C [14]: 91.3%
viability, T/C [15]: 37.5%
viability, T/C [16]: 25.3%
viability, T/C [17]: 17.2%
viability, T/C [18]: 5.79%
viability, T/C [19]: 50.8%
viability, T/C [20]: 38%
viability, T/C [21]: 21.1%
viability, T/C [22]: 19.4%
viability, T/C [23]: 15.4%
viability, T/C [24]: 5.16%
viability, T/C [25]: 20.9%
viability, T/C [26]: 20.1%
viability, T/C [27]: 14%
viability, T/C [28]: 16.5%
viability, T/C [29]: 13%
viability, T/C [30]: 4.44%
viability, T/C [31]: 18.2%
viability, T/C [32]: 13.5%
viability, T/C [33]: 15.7%
viability, T/C [34]: 17.2%
viability, T/C [35]: 11.4%
viability, T/C [36]: 2.55%

IC50 (second compound 0.00316 µM): > 10000 nM
IC50 (second compound 0.01 µM): < 31.6 nM
IC50 (second compound 0.0316 µM): < 31.6 nM
IC50 (second compound 0.1 µM): < 31.6 nM
IC50 (second compound 0.316 µM): < 31.6 nM
IC50 (second compound 1 µM): < 31.6 nM
Compound: C=CC(=O)N1CCN(c2nc(=O)n(-c3c(C)ccnc3C(C)C)c3nc(-c4c(O)cccc4F)c(F)cc23)C(C)C1 (stereo unspecified) + COc1c(OCCCN2CCOCC2)ccc2c3n(c(=NC(=O)c4cnc(N)nc4)nc12)CCN3
viability, T/C [1]: 86.8%
viability, T/C [2]: 78.2%
viability, T/C [3]: 99%
viability, T/C [4]: 63.5%
viability, T/C [5]: 101%
viability, T/C [6]: 97.9%
viability, T/C [7]: 45.5%
viability, T/C [8]: 56.6%
viability, T/C [9]: 47.7%
viability, T/C [10]: 64.7%
viability, T/C [11]: 60.2%
viability, T/C [12]: 85%
viability, T/C [13]: 25.5%
viability, T/C [14]: 36.7%
viability, T/C [15]: 29%
viability, T/C [16]: 30.6%
viability, T/C [17]: 26.3%
viability, T/C [18]: 30.6%
viability, T/C [19]: 15.9%
viability, T/C [20]: 16.5%
viability, T/C [21]: 17.5%
viability, T/C [22]: 18.7%
viability, T/C [23]: 15.4%
viability, T/C [24]: 16.1%
viability, T/C [25]: 8.2%
viability, T/C [26]: 8.82%
viability, T/C [27]: 7.92%
viability, T/C [28]: 8.17%
viability, T/C [29]: 6.9%
viability, T/C [30]: 5.27%
viability, T/C [31]: 4.55%
viability, T/C [32]: 3.78%
viability, T/C [33]: 3.56%
viability, T/C [34]: 3.98%
viability, T/C [35]: 3.29%
viability, T/C [36]: 2.04%

IC50 (second compound 0.00316 µM): > 100 nM
IC50 (second compound 0.01 µM): > 100 nM
IC50 (second compound 0.0316 µM): 69.5 nM
IC50 (second compound 0.1 µM): 0.458 nM
IC50 (second compound 0.316 µM): < 0.316 nM
IC50 (second compound 1 µM): < 0.316 nM
Compound: CC(=O)c1c(C)c2cnc(Nc3ccc(N4CCNCC4)cn3)nc2n(C2CCCC2)c1=O + CC(Nc1ccc2c(c1)OCCn1cc(N3C(=O)OCC3C(F)F)nc1-2)C(N)=O
viability, T/C (second compound 0.00316 µM, first compound 0.000316 µM): 78.8%
viability, T/C (second compound 0.00316 µM, first compound 0.001 µM): 91.4%
viability, T/C (second compound 0.00316 µM, first compound 0.00316 µM): 92.8%
viability, T/C (second compound 0.00316 µM, first compound 0.01 µM): 82.7%
viability, T/C [1]: 84.2%
viability, T/C [2]: 59.2%
viability, T/C (second compound 0.01 µM, first compound 0.000316 µM): 94.7%
viability, T/C (second compound 0.01 µM, first compound 0.001 µM): 83.6%
viability, T/C (second compound 0.01 µM, first compound 0.00316 µM): 100%
viability, T/C (second compound 0.01 µM, first compound 0.01 µM): 91.7%
viability, T/C [7]: 87.5%
viability, T/C [8]: 68.6%
viability, T/C (second compound 0.0316 µM, first compound 0.000316 µM): 64.2%
viability, T/C (second compound 0.0316 µM, first compound 0.001 µM): 66.7%
viability, T/C (second compound 0.0316 µM, first compound 0.00316 µM): 76.9%
viability, T/C (second compound 0.0316 µM, first compound 0.01 µM): 86.2%
viability, T/C [13]: 69.1%
viability, T/C [14]: 40.4%
viability, T/C (second compound 0.1 µM, first compound 0.000316 µM): 49.2%
viability, T/C (second compound 0.1 µM, first compound 0.001 µM): 52.7%
viability, T/C (second compound 0.1 µM, first compound 0.00316 µM): 38.8%
viability, T/C (second compound 0.1 µM, first compound 0.01 µM): 32.5%
viability, T/C [19]: 33.6%
viability, T/C [20]: 23.6%
viability, T/C (second compound 0.316 µM, first compound 0.000316 µM): 21.7%
viability, T/C (second compound 0.316 µM, first compound 0.001 µM): 22%
viability, T/C (second compound 0.316 µM, first compound 0.00316 µM): 19.3%
viability, T/C (second compound 0.316 µM, first compound 0.01 µM): 21.5%
viability, T/C [25]: 20.5%
viability, T/C [26]: 18.1%
viability, T/C (second compound 1 µM, first compound 0.000316 µM): 16.8%
viability, T/C (second compound 1 µM, first compound 0.001 µM): 17.1%
viability, T/C (second compound 1 µM, first compound 0.00316 µM): 17.7%
viability, T/C (second compound 1 µM, first compound 0.01 µM): 16.5%
viability, T/C [31]: 18.2%
viability, T/C [32]: 12.2%
